Reference: patent publication US11203613B2, “Peptidomimetic proteasome inhibitors” (CORNELL UNIVERSITY, priority 2017, dated 2021)

Biological target: Human Constitutive (Hu C-20S) β5 Active Subunit (Homo sapiens, UniProt P28074)
Assay: IC50 determination, human constitutive 20S proteasome β5c (suc-LLVY-AMC hydrolysis)
Assay type: biochemical
Conditions: Table 3; IC50 against human constitutive β5 active subunit; read-out: Hu-C20S β5

Compound | IC50 [µM]
CC[C@H]1CCCCN1C(=O)C[C@H](NC(=O)CCC(C)C)C(=O)N[C@@H](C)c1nc2ccccc2[nH]1 [CEN-28, N—((S)-1-(((S)-1-(1H-Benzo[d]imidazol-2-yl)ethyl)amino)-4-((S)-2-ethylpiperidin-1-yl)-1,4-dioxobutan-2-yl)-4-methylpentanamide] | 14.8
CC[C@H]1CCCCN1C(=O)C[C@H](NC(=O)CCC(C)(C)C)C(=O)N[C@@H](C)c1nc2ccccc2[nH]1 [CEN-29, N—((S)-1-(((S)-1-(1H-Benzo[d]imidazol-2-yl)ethyl)amino)-4-((S)-2-ethylpiperidin-1-yl)-1,4-dioxobutan-2-yl)-4,4-dimethylpentanamide] | 6.9
Cc1ncc(C(=O)N[C@@H](CC(=O)N2CCCC[C@@H]2C)C(=O)N[C@@H](C)c2nc3c(F)cccc3[nH]2)s1 [CEN-30, N—((S)-1-(((S)-1-(4-Fluoro-1H-benzo[d]Imidazol-2-yl)ethyl)amino)-4-((S)-2-methylpiperidin-1-yl)-1,4-dioxobutan-2-yl)-2-methylthiazole-5-carboxamide] | 4.5
CC(C)CCC(=O)N[C@@H](CC(=O)N1CCCC[C@@H]1C)C(=O)NCc1nc2ccccc2[nH]1 [CEN-31, N—((S)-1-(((1H-Benzo[d]imidazol-2-yl)methyl)amino)-4-((S)-2-methylpiperidin-1-yl)-1,4-dioxobutan-2-yl)-4-methylpentanamide] | 17.6
CC(C)CCC(=O)N[C@@H](CC(=O)N1CCCC[C@@H]1C)C(=O)N[C@@H](C)c1nc2ccccc2[nH]1 [CEN-32, N—((S)-1-(((S)-1-(1H-Benzo[d]imidazol-2-yl)ethyl)amino)-4-((S)-2-methylpiperidin-1-yl)-1,4-dioxobutan-2-yl)-4-methylpentanamide] | 23.5
C[C@H](NC(=O)[C@H](CC(=O)N1CCC[C@@H]1C)NC(=O)CCC(C)(C)C)c1nc2ccccc2[nH]1 [CEN-33, N—((S)-1-(((S)-1-(1H-Benzo[d]imidazol-2-yl)ethyl)amino)-4-((S)-2-methylpyrrolidin-1-yl)-1,4-dioxobutan-2-yl)-4,4-dimethylpentanamide] | 16.5
CC(C)CCC(=O)N[C@@H](CC(=O)N1CCCC[C@@H]1C)C(=O)N[C@H](C)c1nc2ccccc2[nH]1 [CEN-34, N—((S)-1-(((R)-1-(1H-Benzo[d]imidazol-2-yl)ethyl)amino)-4-((S)-2-methylpiperidin-1-yl)-1,4-dioxobutan-2-yl)-4-methylpentanamide] | 15.6
Cc1cc(C(=O)N[C@@H](CC(=O)N2CCCC[C@@H]2C)C(=O)NC(C)c2nc3ccccc3[nH]2)no1 (stereo partly drawn) [CEN-35, N-((2S)-1-((1-(1H-Benzo[d]imidazol-2-yl)ethyl)amino)-4-((S)-2-methylpiperidin-1-yl)-1,4-dioxobutan-2-yl)-5-methylisoxazole-3-carboxamide] | 19.6
Cc1cc(C(=O)N[C@@H](CC(=O)N2CCCC[C@@H]2C)C(=O)N[C@@H](C)c2nc3ccccc3[nH]2)no1 [CEN-36, N—((S)-1-(((S)-1-(1H-Benzo[d]imidazol-2-yl)ethyl)amino)-4-((S)-2-methylpiperidin-1-yl)-1,4-dioxobutan-2-yl)-5-methylisoxazole-3-carboxamide] | 17.5
C[C@@H](NC(=O)[C@H](CC(=O)N1CCCC[C@@H]1C)NC(=O)CCC(C)(C)C)c1nc2ccccc2[nH]1 [CEN-37, N—((S)-1-(((R)-1-(1H-Benzo[d]imidazol-2-yl)ethyl)amino)-4-((S)-2-methylpiperidin-1-yl)-1,4-dioxobutan-2-yl)-4,4-dimethylpentanamide] | 17.3
C[C@H](NC(=O)[C@H](CC(=O)N1CCCC[C@@H]1C)NC(=O)C1CC(C)(C)C1)c1nc2c(F)cccc2[nH]1 [CEN-39, N—((S)-1-(((S)-1-(4-Fluoro-1H-benzo[d]Imidazol-2-yl)ethyl)amino)-4-((S)-2-methylpiperidin-1-yl)-1,4-dioxobutan-2-yl)-3,3-dimethylcyclobutane-1-carboxamide] | 7.6
CC(C)C1CC1C(=O)N[C@@H](CC(=O)N1CCCC[C@@H]1C)C(=O)N[C@@H](C)c1nc2c(F)cccc2[nH]1 (stereo partly drawn) [CEN-40, N—((S)-1-(((S)-1-(4-Fluoro-1H-benzo[d]Imidazol-2-yl)ethyl)amino)-4-((S)-2-methylpiperidin-1-yl)-1,4-dioxobutan-2-yl)-2-isopropylcyclopropane-1-carboxamide] | 2.7
C[C@H](NC(=O)[C@H](CC(=O)N1CCCC[C@@H]1C)NC(=O)CCC(C)(C)C)c1nc2c(F)cccc2[nH]1 [CEN-41, N—((S)-1-(((S)-1-(4-Fluoro-1H-benzo[d]Imidazol-2-yl)ethyl)amino)-4-((S)-2-methylpiperidin-1-yl)-1,4-dioxobutan-2-yl)-4,4-dimethylpentanamide] | 4.8
C[C@H](NC(=O)[C@H](CC(=O)N1CCCC[C@@H]1C)NC(=O)C1CC2(CCC2)C1)c1nc2c(F)cccc2[nH]1 [CEN-42, N—((S)-1-(((S)-1-(4-Fluoro-1H-benzo[d]imidazol-2-yl)ethyl)amino)-4-((S)-2-methylpiperidin-1-yl)-1,4-dioxobutan-2-yl)spiro[3.3]heptane-2-carboxamide] | 27.4
C[C@H](NC(=O)[C@H](CC(=O)N1CCCC[C@@H]1C)NC(=O)C1CC2(COC2)C1)c1nc2cccc(F)c2[nH]1 [CEN-43, N—((S)-1-(((S)-1-(7-Fluoro-1H-benzo[d]imidazol-2-yl)ethyl)amino)-4-((S)-2-methylpiperidin-1-yl)-1,4-dioxobutan-2-yl)-2-oxaspiro[3.3]heptane-6-carboxamide] | 13.8
C[C@@H](NC(=O)[C@H](CC(=O)N1CCCC[C@@H]1C)NC(=O)CC1CC(C)(C)C1)c1nc2c(F)cccc2[nH]1 [CEN-44, (S)-2-(2-(3,3-Dimethylcyclobutyl)acetamido)-N—((R)-1-(4-fluoro-1H-benzo[d]imidazol-2-yl)ethyl)-4-((S)-2-methylpiperidin-1-yl)-4-oxobutanamide] | 0.9
CC[C@H]1CCCCN1C(=O)C[C@H](NC(=O)CCC(C)C)C(=O)N[C@@H](C)c1nc2c(F)cc(F)cc2[nH]1 [CEN-45, N—((S)-1-(((S)-1-(4,6-Difluoro-1H-benzo[d]Imidazol-2-yl)ethyl)amino)-4-((S)-2-ethylpiperidin-1-yl)-1,4-dioxobutan-2-yl)-4-methylpentanamide] | 4.1
CC1CC(C(=O)N[C@@H](CC(=O)N2CCC[C@@H]2c2ccccc2)C(=O)NC(C)c2nc3ccccc3[nH]2)C1 (stereo partly drawn) [CEN-46, N-((2S)-1-((1-(1H-Benzo[d]imidazol-2-yl)ethyl)amino)-1,4-dioxo-4-((R)-2-phenylpyrrolidin-1-yl)butan-2-yl)-3-methylcyclobutane-1-carboxamide] | 8.4
CC(C)CCC(=O)N[C@@H](CC(=O)N1CCC[C@@H]1c1ccccc1)C(=O)NC(C)c1nc2ccccc2[nH]1 (stereo partly drawn) [CEN-47, N-((2S)-1-((1-(1H-Benzo[d]imidazol-2-yl)ethyl)amino)-1,4-dioxo-4-((R)-2-phenylpyrrolidin-1-yl)butan-2-yl)-4-methylpentanamide] | 29.4
CC(C)CCC(=O)N[C@@H](CC(=O)N1CCC[C@@H]1c1ccccc1)C(=O)N[C@@H](C)c1nc2ccccc2[nH]1 [CEN-48, N—((S)-1-(((S)-1-(1H-Benzo[d]imidazol-2-yl)ethyl)amino)-1,4-dioxo-4-((R)-2-phenylpyrrolidin-1-yl)butan-2-yl)-4-methylpentanamide] | 50
CC(C)CCC(=O)N[C@@H](CC(=O)N1CCC[C@@H]1c1ccccc1)C(=O)N[C@H](C)c1nc2ccccc2[nH]1 [CEN-49, N—((S)-1-(((R)-1-(1H-Benzo[d]imidazol-2-yl)ethyl)amino)-1,4-dioxo-4-((R)-2-phenylpyrrolidin-1-yl)butan-2-yl)-4-methylpentanamide] | 50
C[C@H](NC(=O)[C@H](CC(=O)N1CCCC[C@@H]1C)NC(=O)OCc1ccccc1)c1nc2c(F)cccc2[nH]1 [CEN-50, Benzyl ((S)-1-(((S)-1-(4-Fluoro-1H-benzo[d]Imidazol-2-yl)ethyl)amino)-4-((S)-2-methylpiperidin-1-yl)-1,4-dioxobutan-2-yl)carbamate] | 14.8
C[C@H](NC(=O)[C@H](CC(=O)N1CCCC1C1CC1)NC(=O)C1CC2(COC2)C1)c1nc2cccc(F)c2[nH]1 (stereo partly drawn) [CEN-51, N-((2S)-4-(2-Cyclopropylpyrrolidin-1-yl)-1-(((S)-1-(7-fluoro-1H-benzo[d]imidazol-2-yl)ethyl)amino)-1,4-dioxobutan-2-yl)-2-oxaspiro[3.3]heptane-6-carboxamide] | 15
Cc1cc(C(=O)N[C@@H](CC(=O)N2CCC[C@@H]2c2ccccc2)C(=O)NC(C)c2nc3ccccc3[nH]2)no1 (stereo partly drawn) [CEN-52, N-((2S)-1-((1-(1H-Benzo[d]imidazol-2-yl)ethyl)amino)-1,4-dioxo-4-((R)-2-phenylpyrrolidin-1-yl)butan-2-yl)-5-methylisoxazole-3-carboxamide] | 7.5
Cc1cc(C(=O)N[C@@H](CC(=O)N2CCC[C@@H]2c2ccccc2)C(=O)N[C@@H](C)c2nc3ccccc3[nH]2)no1 [CEN-53, N—((S)-1-(((S)-1-(1H-Benzo[d]imidazol-2-yl)ethyl)amino)-1,4-dioxo-4-((R)-2-phenylpyrrolidin-1-yl)butan-2-yl)-5-methylisoxazole-3-carboxamide] | 9.7
C[C@H](NC(=O)[C@H](CC(=O)N1CCC[C@@H]1c1ccccc1)NC(=O)CCC(C)(C)C)c1nc2ccccc2[nH]1 [CEN-54, N—((S)-1-(((S)-1-(1H-Benzo[d]imidazol-2-yl)ethyl)amino)-1,4-dioxo-4-((R)-2-phenylpyrrolidin-1-yl)butan-2-yl)-4,4-dimethylpentanamide] | 16.6
C[C@H](NC(=O)[C@H](CC(=O)N1CCCC[C@@H]1C)NC(=O)[C@H]1C[C@@H]1c1ccccc1)c1nc2c(F)cccc2[nH]1 [CEN-55, (1S,2S)—N—((S)-1-(((S)-1-(4-Fluoro-1H-benzo[d]Imidazol-2-yl)ethyl)amino)-4-((S)-2-methylpiperidin-1-yl)-1,4-dioxobutan-2-yl)-2-phenylcyclopropane-1-carboxamide] | 12.3
C[C@H](NC(=O)[C@H](CC(=O)N1CCCC[C@@H]1C)NC(=O)N(C)Cc1ccccc1)c1nc2c(F)cccc2[nH]1 [CEN-56, (S)-2-(3-Benzyl-3-methylureido)-N—((S)-1-(4-fluoro-1H-benzo[d]imidazol-2-yl)ethyl)-4-((S)-2-methylpiperidin-1-yl)-4-oxobutanamide] | 17.2
